Source: patent US20030207856A1, “Medical devices and compositions for delivering anti-proliferatives to anatomical sites at risk for restenosis” (priority 2002, published 2003)

System: Human coronary smooth muscles cells (HCASMC)
Assay: Human coronary artery smooth muscle cell proliferation inhibition
Type: cell-based
Settings: day four, both cell culture schemes, FIGS. 6 and 7
Experimental: Inhibition of Human Coronary Artery Smooth Muscle Cells by Geldanamycin
1. Human coronary smooth muscles cells (HCASMC) were obtained from Clonetics, a division of Cambrex, Inc.
2. HCASMA basal media, supplied by Clonetics and supplemented with fetal bovine serum, insulin, hFGF-B (human fibroblast growth factor) hEGF (human epidermal growth factor).
Human coronary smooth muscles cells (HCASMC) were seeded in 24 well polystyrene tissue culture plates at a density of 5×10^3 cells per well. Two different feeding and reading strategies were employed. Strategy 1: Cells were plated in cell culture media containing various concentrations of geldanamycin (see Table 1) and incubated at 37° C. for 48 hours. After the initial 48 hour incubation, the geldanamycin containing plating media was changed and the cells were fed with drug free media and incubated for an additional 48 hours and then read.
Strategy 2: Cells were plated in cell culture media containing various concentrations of geldanamycin (see Table 1) and incubated at 37° C. for 48 hours. After the initial 48 hours incubation, the geldanamycin-containing plating media was changed and the cells were fed with geldanamycin-containing media and incubated for an additional 48 hours and then read. […]
On day four cultures were analyzed to determine the proliferation inhibition effects of geldanamycin. […]

SMILES: COC1=C2C[C@@H](C)C[C@H](OC)[C@H](O)[C@@H](C)/C=C(\C)[C@H](OC(N)=O)[C@@H](OC)/C=C\C=C(/C)C(=O)NC(=CC1=O)C2=O [geldanamycin]
- HCASMC inhibition (percent inhibition of proliferation) (geldanamycin 0.9 nM): > 50%
- HCASMC inhibition (percent inhibition of proliferation) (geldanamycin 50 nM): ~100%
